# Test results published in US5565330A, “Method for removing N-terminal dipeptides from precursor polypeptides with dipeptidylaminopeptidase from Dictyostelium discoideum” (Eli Lilly and Company, priority 1995, dated 1996).
# Experiments:
# [1] = target: T1, bovine spleen DAP-I (Bos taurus, UniProt Q3ZCJ8); experiment: Inhibition of GFpNA cleavage by sulfhydryl modifying agents; assay type: biochemical; details: 5 mM inhibitor, 15 minutes at room temperature, pH 7; then 4 mM GFpNA, pH 3.5, 37 degrees; read-out: decrease (inhibition) of bovine DAP-I's rate of cleavage of GFpNA
# T1 construct: bovine spleen DAP-I; from tissue; host or cells: bovine spleen
# Experimental: (§1) dDAP activity is normally monitored by following the cleavage of the chromogenic substrate Gly-Phe para-nitroanilide (GF-pNA). Typically the assay is performed by diluting the enzyme 11 fold into 1.0 ml of 4 mM GFpNA adjusted to pH 3.5. The rate of cleavage of GF dipeptide was monitored at 37° C. by measuring the increase in absorbance at 405 nm. One unit of activity leads to a 0.90 OD change per minute under these conditions. Unit/ml estimates can be made assuming an extinction coefficient for free pNA of 9.9 mM-1 cm-1 at 405 nm.
# (§2) The inhibition profile of dDAP toward the substrate GFpNA was compared to that of bovine DAP-I using iodoacetamide and potassium tetrathionate, sulfhydryl modifying agents known to inhibit the activity of DAP-I. Samples of dDAP or bovine spleen DAP-I were incubated for 15 minutes at room temperature in final concentrations of 0, 0.5, 5.0 or 50 mM of either inhibitor at pH 7 in 100 mM Tris buffer. The incubated solutions were then diluted 21-fold with 4 mM GFpNA, pH 3.5. The rate of cleavage was monitored by measuring the increase in absorbance at 405 nm at 37 degrees centigrade. Bovine DAP-I's rate of cleavage of GFpNA was decreased more than 90% by the exposure to 5 mM iodoacetamide and was 95% inhibited by 5 mM potassium tetrathionate.
# [2] = tested on: dDAP; experiment: as above; assay type: biochemical, Dictyostelium discoideum; details: 0.5, 5.0 or 50 mM inhibitor, 15 minutes at room temperature, pH 7; then 4 mM GFpNA, pH 3.5
# Experimental: as §1, §2
# [3] = Cleavage of blocked Benzyloxycarbonyl-RR-BNA (fluorescence); assay type: biochemical; details: 0.25 mM Z-RR-BNA, pH 3.5 or pH 5.0
# Experimental: (§3) About 0.25 mM RR-BNA or 0.25 mM Benzyloxycarbonyl-RR-BNA (Z-RR-BNA) was prepared in either 100 mM acetic acid, pH 3.5, or 100 mM citrate buffer, pH 5.0. To 2 ml of substrate was added dDAP or bovine DAP-I (about 15 milliunit/ml solution). Rates of cleavage (monitoring fluorescence increase at 410 nm with excitation at 340 nm) were monitored. […] The pH optimum for cleavage of RR-BNA was probed by monitoring the rate of RR-BNA cleavage using a buffer system consisting of 50 mM acetic acid and 50 mM citrate. Various pHs were achieved using HCl or NaOH and 1.5 ml volumes were made 2.0 with 0.5 ml of a 1 mM stock solution of RR-BNA (final concentration of about 0.25 mM). dDAP was added (to about 15 mU/ml) and the rates of cleavage were determined.
# [4] = tested on: Met(O)-Arg-hPI; experiment: Conversion of oxidized methionyl Met(O)-Arg-hPI (HPLC); assay type: biochemical, human; details: X is Arg, Phe and Tyr
# Experimental: Met-Arg-Human Proinsulin (Met-Arg-hPI) was produced as an insoluble protein in the cytoplasm of E. coli. The insoluble protein was solubilized in 7M urea. The protein was purified by ion exchange chromatography. The Met-Arg-hPI was sulfitolyzed, solvent exchanged and folded in order to form the native disulfide bond pairs and native tertiary structure. The material was further purified using reverse phase chromatography.
# The Met-Arg-hPI was about 24 mg/ml (in approximately 20 mM glycine buffer, pH 3.5). About 2.4 mg of this material was incubated with 0.19 milliunits of dDAP at pH 3.5. The reaction was allowed to proceed at room temperature. Periodically, aliquots were removed and diluted with 10% phosphoric acid. This material was injected onto a neutral reverse phase HPLC system to monitor for the disappearance of Met-Arg-hPI or Met(O)-Arg-hPI and the subsequent production of hPI. In addition, aliquots were diluted into an appropriate diluent to allow for HPLC monitoring of appearance of either the Met-Arg or Met(O)-Arg dipeptides. Approximately 60% of the Met-Arg-hPI was converted to hPI in 8 hours. […] The rate of cleavage of both substrates was similar. […] The ability of dDAP to cleave the oxidized Met(O)-X substrate has distinct processing advantages over enzymes unable to perform this cleavage.
# [5] = Cleavage of Arg-Arg-β-naphthylamide (fluorescence); assay type: biochemical; details: 0.25 mM RR-BNA, pH 3.5 or pH 5.0, about 15 milliunit/ml enzyme
# Experimental: as §3
# T1 sequence (Q3ZCJ8 231-394 limits assumed): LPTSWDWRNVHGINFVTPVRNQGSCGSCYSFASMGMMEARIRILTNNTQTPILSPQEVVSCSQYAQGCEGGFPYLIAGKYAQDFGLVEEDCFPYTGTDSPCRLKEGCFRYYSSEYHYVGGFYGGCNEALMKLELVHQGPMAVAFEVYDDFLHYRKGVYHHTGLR
# T1 sequence (Q3ZCJ8 395-463 limits assumed): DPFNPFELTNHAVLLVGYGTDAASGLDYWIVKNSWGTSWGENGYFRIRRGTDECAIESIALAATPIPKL
# T1 sequence (Q3ZCJ8 25-143 limits assumed): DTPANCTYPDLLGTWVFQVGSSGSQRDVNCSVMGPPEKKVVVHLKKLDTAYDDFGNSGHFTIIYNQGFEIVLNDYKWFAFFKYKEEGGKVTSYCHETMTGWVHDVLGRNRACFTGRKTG
Molecule,inhibition at 5000 µM [1] [%],inhibition of dDAP cleavage of GFpNA [2],cleavage of blocked amino group Z-RR-BNA [3],cleavage of Met(O)-X-derivatives of hPI [4],cleavage of RR-BNA [5]
NC(=O)CI [iodoacetamide],> 90,no evidence of significant inhibition,,,
O=S(=O)([O-])SSS(=O)(=O)[O-].[K+].[K+] [potassium tetrathionate],95,no evidence of significant inhibition,,,
"bovine DAP-I: bovine spleen dipeptidylaminopeptidase I, comparison enzyme",,,unable to cleave,unable to cleave,unable to cleave
